We go through 2 compounds from patent publication US20040019118A1, “NMDA receptor antagonists and their use in inhibiting abnormal hyperphosphorylation of microtubule associated protein tau” (priority 2002, published 2004).

The subject of one series is PKA. Nature of the series: PKA activity in extracts of treated hippocampal slice cultures. In kind it is cell-based, rat. Here is the method: (§1) Organotypic cultures of rat hippocampal slices were prepared from 20-30 day old Wistar rats and cultured with the interface method as described previously (Stoppini, et al. 1991; Bahr, et al. 1995; Zhongrin, et al. 2000). The rats were anesthetized with ketamine (100 mg/kg body weight) and decapitated and the hippocampi were dissected out and sliced into 400 um coronal sections by a McIllwain tissue chopper. Select slices with uninterrupted bright transparent neuronal layers were plated, 1-3 slices/filter, onto Millicell CM filters (Millipore, Bedford, Mass.). For the first 2 days in vitro (DIV) cultures were maintained in 25% horse serum, 50% Basal Media-Eagle (BEM), 25% Eagle's Balanced Salt Solution (EBSS), 25 mM HEPES, 1 mM glutamine, 28 mM glucose, pH 7.2, at 32° C. in a 5% CO2 humidified atmosphere. The slice cultures were then switched to 25% horse serum, 50% BEM and EBSS modified so that the potassium concentration was 2.66 mM, for another 5 DIV. After 7 DIV, the cultures were maintained in physiological potassium containing 5% horse serum medium at 35° C. for at least 20 days before any treatment was applied. When the slices were treated, the reagents were applied into the culture medium. At different time points, the slices collected with a brush were washed twice in homogenizing buffer (50 mM HEPES, pH 7.0, 10 mM β-merceptoethanol [BME], 1 mM EDTA, 1 mM EGTA, 0.1 mM phenylmethyl sulfonyl fluoride [PMSF], 2.0 mM benzamidine and 2.0 μg/ml each of aprotinin, leupeptin and pepstatin) and homogenized at 4° C. using a Teflon-glass homogenizer. The homogenate was then divided into two parts, one was centrifuged at 16000×g for 15 min and the supernatant was used to assay activities of PP-2A and PP-1. The rest of the homogenate was diluted 1:1 with a phosphatase inhibitor cocktail (20 mM β-glycerophosphate, 2 mM Na3VO4 and 100 mM NaF, pH 7.0) and either used for Western blots or centrifuged at 16000×g for 15 min and the resulting supernatant used to determine the kinase activities.
CaMKII activity was measured in 25 μl of buffer containing 50 mM HEPES, pH 7.5, 10 mM MgCl2, 2.0 mM CaCl2, 10 mM BME, 10 μg/ml calmodulin (CaM), 20 μM syntide (Sigma, St Louis Mo., USA), 0.06 mg/ml slice extract and 200 μM [γ^32P]ATP. The reaction was initiated by adding [γ32p] ATP. After incubation for 10 min at 30° C., 10 μl reaction mixture was removed and spotted on to phosphocellulose membrane. The membrane was then washed five times in 1% phosphoric acid to remove non-protein incorporated ^32P, dried and counted by Cerenkov radiation. The activity of PKA was determined as above except the reaction mixture contained 70 mM NaHPO4, pH 6.8, 14 mM MgCl2, 1.4 mM EDTA, 30 μM malantide (Sigma, St Louis, Mo., USA), 200 μM [γ^32p] ATP and 0.06 mg/ml slice extract.

Series [1] deals with hippocampal slices in culture. Nature of the series: Cell death by LDH activity released into the culture medium. In kind it is cell-based, rat. Here is the method: as §1
The LDH released into the culture medium from the slices was determined calorimetrically using Cytotox 96R Non-Radioactive Cytotoxicity Assay Kit (Promega, Madison, Wis.) according to the manufacturer's protocol. The assay was carried out in 96-well microplates, and the results were read by a kinetic microplate reader (Molecular Devices) at a wavelength of 490 nm. Protein concentrations were assayed by the modified Lowry method (Bensadoun and Weinstein, 1976).

For the next series, the target named is T1, PP-2A (Rattus norvegicus, UniProt P63331).
T1 construct: from tissue; host or cells: organotypic culture of adult rat hippocampal slices; 16,000xg extract
Nature of the series: PP-2A activity after in vitro addition to 16,000xg extract of hippocampal slices. The format is biochemical. Here is the method:
Activities of PP-2A and PP-1 were assayed towards [^32P] phosphorylase-a as a substrate as described previously (Gong, et al. 1994). The phosphatase activity was assayed in 20 μl of reaction mixture containing 50 mM Tris, pH 7.0, 10 mM BME, 0.1 mM EDTA, 7.5 mM caffeine, 7.5 ng/μl [^32P]phosphorylase-a and 0.06 mg/ml slice culture extract. The reaction was started by adding ^32P-phosphorylase-a. After incubation for 30 min at 30° C., 7 μl of the reaction mixture was spotted on to 31 ETCHR chromatography paper which had been prespotted with 10 μl stop solution (4 mM ATP+20% TCA). Then the ^32p released was separated from the protein-incorporated ^32P by paper chromatography in 5% TCA and 0.2 M NaCl, paper strips dried, cut and counted by Cerenkov radiation. A PP-1 specific inhibitor, inhibitor-1 (Hitken, et al. 1982) was included in the assays for PP-2A activity. PP-1 activity was calculated by subtracting the PP-2A activity from the total phosphorylase-a phosphatase activity (PP-1/PP-2A) assayed in the absence of inhibitor-1.
For this purpose we treated the hippocampal slices in culture either with 100 nM OA plus 10 μM Memantine or with OA alone for 24 h, followed by a wash and then treatment with or without Memantine for another 24 h.

For another series, the system named is tau. Nature of the series: Tau phosphorylation by radioimmuno-dot-blots and 125I-Western blots of slice homogenates. The format is cell-based, rat. Here is the method:
as §1, with “The” for “Organotypic cultures of rat hippocampal slices were prepared from 20-30 day old Wistar rats and cultured with the interface method as described previously (Stoppini, et al. 1991; Bahr, et al. 1995; Zhongrin, et al. 2000). The”, “For the first 2 days in vitro (DIV) cultures were maintained in 25% horse serum, 50% Basal Media-Eagle (BEM), 25% Eagle's Balanced Salt Solution (EBSS), 25 mM HEPES, 1 mM glutamine, 28 mM glucose, pH 7.2, at 32° C. in a 5% CO2 humidified atmosphere. The slice cultures were then switched to 25% horse serum, 50% BEM and EBSS modified so that the potassium concentration was 2.66 mM, for another 5 DIV.” left out
Triplicate samples of each homogenate were applied to nitrocellulose membrane (Schleicher and Schuell, Keene, N.H.) and dried at 37° C.
A general note: In western blotting, separated proteins are transferred to a membrane and probed.

Setting [2] is: 100 nM OA 24 h, then 10 μM Memantine 24 h.

Entries after “also recorded” stand apart in the source; their conditions may differ.

T1 sequence (P63331 whole entry): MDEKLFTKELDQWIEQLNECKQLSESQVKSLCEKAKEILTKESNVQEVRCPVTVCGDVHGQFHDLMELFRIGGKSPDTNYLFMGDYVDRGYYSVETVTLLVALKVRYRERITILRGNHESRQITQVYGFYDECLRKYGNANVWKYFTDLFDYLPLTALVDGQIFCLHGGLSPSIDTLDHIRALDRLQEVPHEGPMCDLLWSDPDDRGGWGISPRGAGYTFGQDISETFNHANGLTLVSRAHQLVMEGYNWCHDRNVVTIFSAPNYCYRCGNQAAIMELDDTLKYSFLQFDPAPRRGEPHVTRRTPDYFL

Regarding `C=C1[C@@H](O)[C@@H]2O[C@]3(CC[C@H](/C=C/[C@@H](C)[C@@H]4CC(C)=C[C@@]5(O[C@H](C[C@@](C)(O)C(=O)O)CC[C@H]5O)O4)O3)CC[C@H]2O[C@@H]1[C@@H](O)C[C@H](C)[C@H]1O[C@@]2(CCCCO2)CC[C@H]1C` [OA, Okadaic Acid], the “increase in PKA activity” value in the series with PKA (100 nM OA, 24 h or 48 h) was about 20%. The “change in PKA activity” value in the series on PKA (OA-treated slice cultures) is “no significant changes; also recorded: no significant alteration”. The “cell death (LDH activity released in the medium)” value in series [1] (OA up to 1 μM, up to 48 h) is “increased with increase in OA concentration and treatment period; also recorded: markedly increased; also recorded: several-fold increase”. Moreover, the inhibition at 0.1 µM at PP-2A (read-out: inhibition of PP-2A activity, 100 nM OA added to extract of untreated cultures) was determined as 90%. For the same compound, in the series on tau (OA-treated cultures), the “phosphorylation of tau at Ser-214” value was “modest increase”, the “phosphorylation of tau at Ser-262” value is “marked increase; also recorded: dramatic increase” and the “phosphorylation of tau at Ser-422” value is “marked increase; also recorded: dramatic increase”.
Take `CC12CC3CC(C)(C1)CC(N)(C3)C2` [Memantine, 1-amino-3,5-dimethyl adamantane]: the “restoration of OA-induced change in PKA activity” value in the series on PKA (100 nM OA, 10 μM Memantine, 24 h) is “restored the OA-induced changes in the activities of PP-2A, CaMKII and PKA to normal levels”. The “concentration (as low as) restoring OA-induced increase in PKA activity to normal level” value in the series on PKA (100 nM OA, p<0.05) stood at 1 µM. For the same compound, in the series on PKA (no OA), the “effect on PKA activity in control/untreated cultures” value is recorded as “no significant effect”. For the same compound, the “concentration (as low as) that completely inhibited OA-induced cell death” value in series [1] (100 nM OA, p<0.001 (FIG. 2d)) came to 1 µM. Besides, in series [1] (10 μM Memantine), the “inhibition of OA-induced cell death” value is “completely inhibited”. For the same compound, the “effect on LDH activity in the medium of control cultures” value in series [1] (1-30 μM Memantine, no OA) is given as “no effect”. Also, the “lowest concentration with significant/detectable inhibition of OA-induced cell death” value in series [1] (OA-treated slices) amounted to 1 µM. For the same compound, on PP-2A (Memantine 1-10 μM added to extract), the “effect on PP-2A activity of extract of slices cultured with 100 nM OA for 24 h” value is on record as “no significant effect; also recorded: failed to restore”. Besides, the “effect on PP-2A activity inhibited in extract with 100 nM OA” value on PP-2A (Memantine 1 to 60 μM added to extract) was “no significant effect”. Moreover, in the series on tau (setting [2]), the “restoration of OA-induced tau phosphorylation at Ser-214” value was “restored the tau phosphorylation at Ser-262 and Ser-214 to normal levels”; the “restoration of OA-induced tau phosphorylation at Ser-262” value is “restored the tau phosphorylation at Ser-262 and Ser-214 to normal levels; also recorded: practically completely restored”. Besides, in the series with tau (5 μM compound, OA-treated), the “restoration of phosphorylation of tau at Ser-262” value was “restoration”. Besides, in the series with tau (2-10 μM tested, 24 h), the “concentration of maximal effect on tau phosphorylation at Ser-262” value amounted to 5 µM. Besides, the “lowest concentration inhibiting OA-induced tau phosphorylation at Ser-262” value in the series on tau (2-10 μM tested, radioimmuno-dot-blot) was found to be 2 µM. Moreover, the “effect on OA-induced phosphorylation of tau at Ser-422” value with tau (Memantine in OA-treated cultures) is listed as “no effect”. In the series on tau (antibody 134d, radioimmuno-dot-blots), the “effect on level of total tau” value is on record as “no detectable effect”.

By inhibition is commonly meant the share of the control response that was lost under treatment.
